Literature values as cited in patent publication US9072314B2, “Carotenoid-containing compositions and methods” (Mead Johnson Nutrition Company, priority 2007, dated 2015).

Experiments:
H. pylori strains = details: strains in Japanese children, cited study

SMILES | H. pylori strains tested that were resistant (H. pylori strains) | antioxidant capacity relative to Vitamin E (versus Vitamin E) | antioxidant capacity relative to beta-carotene (versus beta-carotene)
CC[C@H]1OC(=O)[C@H](C)[C@@H](O[C@H]2C[C@@](C)(OC)[C@@H](O)[C@H](C)O2)[C@H](C)[C@@H](O[C@@H]2O[C@H](C)C[C@H](N(C)C)[C@H]2O)[C@](C)(OC)C[C@@H](C)C(=O)[C@H](C)[C@@H](O)[C@]1(C)O [clarithromycin] | 29% |  | 
CC1=C(/C=C/C(C)=C/C=C/C(C)=C/C=C/C=C(C)/C=C/C=C(C)/C=C/C2=C(C)C(=O)C(O)CC2(C)C)C(C)(C)CC(O)C1=O (stereo not shown) [Astaxanthin, astaxanthin] |  | 100-500 times | 10 times
Cc1ncc([N+](=O)[O-])n1CCO [metronidazole] | 24% |  | 
